Laboratory results: patent publication US20180092883A1, “PHOSPHATASE INHIBITORS FOR TREATING OCULAR DISEASES” (Aerpio Therapeutics, Inc., priority 2010, published 2018)

System: Rhodopsin/VEGF transgenic mice
Test: Retinal/subretinal neovascularization in rho/VEGF transgenic mice (Study 3; GSA lectin, image analysis)
Type: in vivo, mouse
Details: s.c. b.i.d. for 7 days, 3 mg/kg/dose, vs vehicle
Procedure: Thirty (30) Rhodopsin/VEGF transgenic mice having constitutive expression of VEGF in their retinal neurons were divided into three equal groups. At day 14 post natal each group received subcutaneous injections as follows: Group 1 received 10 mg/kg/injection (high dose) of a compound from Table XXI; Group 2 received 3 mg/kg/injection (low dose) of a compound from Table XXI; and Group 3 received injections of vehicle. Each animal received two injections per day for 7 days.
At P21, mice were sacrificed; eyes were harvested and fixed in 10% PBS-buffered formalin for 2 hours at room temperature. […] After 3 washes with PBST, retinas were mounted and imaged by fluorescence microscopy. Areas of retinal neovascularization were assessed using image analysis software (ImagePro Plus 5). […]
Transgenic mice in which the rhodopsin promoter drives expression of VEGF in photoreceptors (rho/VEGF mice) have onset of VEGF expression at P7 and starting at P10 develop sprouts of neovascularization from the deep capillary bed of the retina that grow through the photoreceptor layer and form an extensive network of new vessels in the subretinal space. […] FITC conjugated GSA was used to stain the retinas at room temperature for 2 hours and then the retinas were flat mounted with the photoreceptor side up and examined by fluorescence microscopy. […]

## COC(=O)N[C@@H](Cc1ccccc1)C(=O)N[C@@H](Cc1ccc(NS(=O)(=O)O)cc1)c1csc(-c2cccs2)n1 [D91]
  neovascular tufts / new blood vessels in the retina at P21 (micrograph FIG. 3B): marked reduction of neovascular tufts
